# Experimental data from patent US20070128217A1 (priority 2003, published 2007).
# Legend:
# [1] = test system: recombinant human anti-SARS-CoV antibody 03-018; assay type: binding; design: Binding of antibody 03-018 to linear peptides of the N protein of SARS-CoV Urbani / Binding of antibody 03-018 to looped/cyclic peptides of the N protein of SARS-CoV Urbani: unit not given here
# [2] = test system: rabbit serum obtained by immunizing a rabbit with the SARS-CoV strain Frankfurt 1; assay type: binding; design: Binding of a rabbit serum to linear peptides / Binding of a rabbit serum to looped peptides / Rabbit serum linear peptides / Rabbit serum looped peptides / Binding of a rabbit serum to linear peptides of protein N of SARS-CoV Urbani (Rabbit serum linear peptides) / Binding of a rabbit serum to looped/cyclic peptides of protein N of SARS-CoV Urbani (Rabbit serum looped peptides): unit not given here
# [3] = test system: control sera (pooled serum of ten healthy LUMC hospital workers; commercial negative donor pooled serum from the Dutch bloodbank); assay type: binding, human; design: Binding of Control serum LUMC to linear peptides / Binding of Control serum Blood-bank to linear peptides / Binding of Control serum LUMC to looped peptides / Binding of Control Serum Blood-Bank to Looped peptides / Binding of Control serum LUMC to linear peptides of the protein M of SARS-CoV Urbani / Binding of Control serum Blood-bank to linear peptides of the protein M of SARS-CoV Urbani / Binding of Control serum LUMC to looped peptides of the protein M of SARS-CoV Urbani / Binding of Control Serum Blood-Bank to Looped peptides of the protein M of SARS-CoV Urbani: unit not given here
# [4] = test system: antibodies in sera from SARS patients (sera 1a, 1b, 2, 6, 37, 62, London, SARS-yellow, SARS-green); assay type: binding, human; design: Binding of serum 6 to linear peptides of protein X1 of SARS-CoV Urbani / Binding of serum 37 to linear peptides of protein X1 of SARS-CoV Urbani / Binding of serum 6 to looped/cyclic peptide (PEPSCAN-ELISA) / Binding of serum 37 to looped/cyclic peptide (PEPSCAN-ELISA) / Binding of serum 37 to looped/cyclic peptides of protein X1 of SARS-CoV Urbani / Binding of serum 6 to linear peptides of protein X2 / Binding of serum 37 to linear peptides of protein X2 / Binding of serum 37 to looped/cyclic peptides of protein X2 of SARS-CoV Urbani / Binding of serum 6 to linear peptides of protein M of SARS-CoV Urbani / Binding of serum 37 to linear peptides of protein M of SARS-CoV Urbani / Binding of serum 6 to looped/cyclic peptides of protein M of SARS-CoV Urbani / Binding of serum 37 to looped/cyclic peptides of protein M of SARS-CoV Urbani / Binding of serum 6 to linear peptides of protein X3 of SARS-CoV Urbani / Binding of serum 37 to linear peptides of protein X3 of SARS-CoV Urbani / Binding of serum 37 to looped/cyclic peptides of protein X3 of SARS-CoV Urbani / Binding of serum 6 to linear peptides of protein X4 of SARS-CoV Urbani / Binding of serum 37 to linear peptides of protein X4 of SARS-CoV Urbani / Binding of serum 37 to looped/cyclic peptides of protein X4 of SARS-CoV Urbani / Binding of serum 6 to linear peptides of protein X5 of SARS-CoV Urbani / Binding of serum 37 to linear peptides of protein X5 of SARS-CoV Urbani / Binding of serum 37 to looped/cyclic peptides of protein X5 of SARS-CoV Urbani / Binding of serum 6 to linear peptides of protein N of SARS-CoV Urbani / Binding of serum 37 to linear peptides of protein N of SARS-CoV Urbani / Binding of serum 6 to linear peptide (PEPSCAN-ELISA) / Binding of serum 1a to looped/cyclic peptides of protein N of SARS-CoV Urbani / Binding of serum 1b to looped/cyclic peptides of protein N of SARS-CoV Urbani / Binding of serum 2 to looped/cyclic peptides of protein N of SARS-CoV Urbani / Binding of serum 6 to looped/cyclic peptides of protein N of SARS-CoV Urbani / Binding of serum 37 to looped/cyclic peptides of protein N of SARS-CoV Urbani / Binding of serum 62 to looped/cyclic peptides of protein N of SARS-CoV Urbani / Binding of serum London to looped/cyclic peptides of protein N of SARS-CoV Urbani / Binding of serum SARS-green to looped/cyclic peptides of protein N of SARS-CoV Urbani: unit not given here
sequence,measurement,setting,value
ARMASGGGETALALL,Binding of antibody 03-018 to linear peptides of the N protein of SARS-CoV Urbani,[1],0.1
same,Binding of antibody 03-018 to looped/cyclic peptides of the N protein of SARS-CoV Urbani,[1],0.3
same,Binding of a rabbit serum to linear peptides of protein N of SARS-CoV Urbani (Rabbit serum linear peptides),[2],0.2
same,Binding of a rabbit serum to looped/cyclic peptides of protein N of SARS-CoV Urbani (Rabbit serum looped peptides),[2],0.0
same,Binding of Control Serum Blood-Bank to Looped peptides,[3],0.6
same,Binding of Control serum Blood-bank to linear peptides,[3],0.8
same,Binding of Control serum LUMC to linear peptides,[3],0.7
same,Binding of Control serum LUMC to looped peptides,[3],0.8
QGTTLPKGFYAEGSR,Binding of antibody 03-018 to linear peptides of the N protein of SARS-CoV Urbani,[1],0.1
same,Binding of antibody 03-018 to looped/cyclic peptides of the N protein of SARS-CoV Urbani,[1],0.2
same,Binding of a rabbit serum to linear peptides of protein N of SARS-CoV Urbani (Rabbit serum linear peptides),[2],0.1
same,Binding of a rabbit serum to looped/cyclic peptides of protein N of SARS-CoV Urbani (Rabbit serum looped peptides),[2],0.6
same,Binding of Control Serum Blood-Bank to Looped peptides,[3],0.7
same,Binding of Control serum Blood-bank to linear peptides,[3],0.8
same,Binding of Control serum LUMC to linear peptides,[3],0.7
same,Binding of Control serum LUMC to looped peptides,[3],0.7
STPGSSRGNSPARMA,Binding of antibody 03-018 to linear peptides of the N protein of SARS-CoV Urbani,[1],0.1
same,Binding of antibody 03-018 to looped/cyclic peptides of the N protein of SARS-CoV Urbani,[1],0.2
same,Binding of serum 1a to linear peptide (PEPSCAN-ELISA),[4],0.5
same,Binding of serum 1a to looped/cyclic peptides of protein N of SARS-CoV Urbani,[4],0.3
same,Binding of serum 1b to linear peptide (PEPSCAN-ELISA),[4],0.3
same,Binding of serum 1b to looped/cyclic peptides of protein N of SARS-CoV Urbani,[4],0.2
same,Binding of serum 2 to linear peptide (PEPSCAN-ELISA),[4],0.4
same,Binding of serum 2 to looped/cyclic peptides of protein N of SARS-CoV Urbani,[4],0.4
same,Binding of serum 6 to linear peptide (PEPSCAN-ELISA),[4],0.3
same,Binding of serum 6 to looped/cyclic peptides of protein N of SARS-CoV Urbani,[4],0.4
same,Binding of serum 37 to linear peptide (PEPSCAN-ELISA),[4],0.7
same,Binding of serum 37 to looped/cyclic peptides of protein N of SARS-CoV Urbani,[4],0.6
same,Binding of serum 62 to linear peptide (PEPSCAN-ELISA),[4],0.8
same,Binding of serum 62 to looped/cyclic peptides of protein N of SARS-CoV Urbani,[4],0.5
same,Binding of serum London to linear peptide (PEPSCAN-ELISA),[4],0.5
same,Binding of serum London to looped/cyclic peptides of protein N of SARS-CoV Urbani,[4],0.5
same,Binding of serum SARS-green to linear peptide (PEPSCAN-ELISA),[4],0.8
same,Binding of serum SARS-green to looped/cyclic peptides of protein N of SARS-CoV Urbani,[4],0.2
same,Binding of serum SARS-yellow to linear peptide (PEPSCAN-ELISA),[4],0.7
same,Binding of serum SARS-yellow to looped/cyclic peptides of protein N of SARS-CoV Urbani,[4],0.5
same,Recognition of the peptide by the rabbit serum,[2],recognized
DPQFKDNVILLNKHI,Binding of antibody 03-018 to linear peptides of the N protein of SARS-CoV Urbani,[1],0.1
same,Binding of antibody 03-018 to looped/cyclic peptides of the N protein of SARS-CoV Urbani,[1],0.3
same,Binding of a rabbit serum to linear peptides of protein N of SARS-CoV Urbani (Rabbit serum linear peptides),[2],0.2
same,Binding of a rabbit serum to looped/cyclic peptides of protein N of SARS-CoV Urbani (Rabbit serum looped peptides),[2],0.7
QFAYSNRNRFLYIIK,Binding of serum 1a to linear peptides of protein M of SARS-CoV Urbani,[4],0.7
same,Binding of serum 1b to linear peptides of protein M of SARS-CoV Urbani,[4],0.6
same,Binding of serum 2 to linear peptides of protein M of SARS-CoV Urbani,[4],0.5
same,Binding of serum 37 to linear peptides of protein M of SARS-CoV Urbani,[4],0.4
same,Binding of serum 62 to linear peptides of protein M of SARS-CoV Urbani,[4],0.9
same,Binding of serum London to linear peptides of protein M of SARS-CoV Urbani,[4],0.4
same,Binding of serum SARS-green to linear peptides of protein M of SARS-CoV Urbani,[4],0.5
same,Binding of serum SARS-yellow to linear peptides of protein M of SARS-CoV Urbani,[4],0.3
same,"Recognition of the peptide by sera of SARS-CoV infected individuals, and form (linear, looped/cyclic) in which it is recognized",[4],recognized in looped/cyclic form
same,Rabbit serum linear peptides,[2],0.4
same,Rabbit serum looped peptides,[2],1.2
same,Binding of Control Serum Blood-Bank to Looped peptides of the protein M of SARS-CoV Urbani,[3],0.6
same,Binding of Control serum Blood-bank to linear peptides of the protein M of SARS-CoV Urbani,[3],0.6
same,Binding of Control serum LUMC to linear peptides of the protein M of SARS-CoV Urbani,[3],0.8
same,Binding of Control serum LUMC to looped peptides of the protein M of SARS-CoV Urbani,[3],0.8
LFLAWIMLLQFAYSN,Binding of serum 1a to linear peptides of protein M of SARS-CoV Urbani,[4],0.7
same,Binding of serum 1a to looped/cyclic peptides of protein M of SARS-CoV Urbani,[4],0.8
same,Binding of serum 1b to linear peptides of protein M of SARS-CoV Urbani,[4],0.5
same,Binding of serum 1b to looped/cyclic peptides of protein M of SARS-CoV Urbani,[4],0.6
same,Binding of serum 2 to linear peptides of protein M of SARS-CoV Urbani,[4],0.3
same,Binding of serum 2 to looped/cyclic peptides of protein M of SARS-CoV Urbani,[4],0.6
same,Binding of serum 6 to linear peptides of protein M of SARS-CoV Urbani,[4],0.3
same,Binding of serum 6 to looped/cyclic peptides of protein M of SARS-CoV Urbani,[4],0.7
same,Binding of serum 37 to linear peptides of protein M of SARS-CoV Urbani,[4],0.6
same,Binding of serum 37 to looped/cyclic peptides of protein M of SARS-CoV Urbani,[4],0.7
same,Binding of serum 62 to linear peptides of protein M of SARS-CoV Urbani,[4],0.7
same,Binding of serum 62 to looped/cyclic peptides of protein M of SARS-CoV Urbani,[4],0.7
same,Binding of serum London to linear peptides of protein M of SARS-CoV Urbani,[4],0.2
same,Binding of serum London to looped/cyclic peptides of protein M of SARS-CoV Urbani,[4],0.3
same,Binding of serum SARS-green to linear peptides of protein M of SARS-CoV Urbani,[4],0.2
same,Binding of serum SARS-green to looped/cyclic peptides of protein M of SARS-CoV Urbani,[4],0.3
same,Binding of serum SARS-yellow to linear peptides of protein M of SARS-CoV Urbani,[4],0.0
same,Binding of serum SARS-yellow to looped/cyclic peptides of protein M of SARS-CoV Urbani,[4],0.6
same,Rabbit serum linear peptides,[2],0.7
same,Rabbit serum looped peptides,[2],0.3
same,Binding of Control Serum Blood-Bank to Looped peptides of the protein M of SARS-CoV Urbani,[3],0.7
same,Binding of Control serum Blood-bank to linear peptides of the protein M of SARS-CoV Urbani,[3],0.5
same,Binding of Control serum LUMC to linear peptides of the protein M of SARS-CoV Urbani,[3],0.2
same,Binding of Control serum LUMC to looped peptides of the protein M of SARS-CoV Urbani,[3],0.6
